Measured values published in article PMC8456715 (International journal of biological macromolecules, 2020).

What was measured:
AtMAT1 = target: T1, AtMAT1 (Arabidopsis thaliana, UniProt P23686); experiment: isothermal titration calorimetry; type: binding
T1 sequence (P23686 1-393): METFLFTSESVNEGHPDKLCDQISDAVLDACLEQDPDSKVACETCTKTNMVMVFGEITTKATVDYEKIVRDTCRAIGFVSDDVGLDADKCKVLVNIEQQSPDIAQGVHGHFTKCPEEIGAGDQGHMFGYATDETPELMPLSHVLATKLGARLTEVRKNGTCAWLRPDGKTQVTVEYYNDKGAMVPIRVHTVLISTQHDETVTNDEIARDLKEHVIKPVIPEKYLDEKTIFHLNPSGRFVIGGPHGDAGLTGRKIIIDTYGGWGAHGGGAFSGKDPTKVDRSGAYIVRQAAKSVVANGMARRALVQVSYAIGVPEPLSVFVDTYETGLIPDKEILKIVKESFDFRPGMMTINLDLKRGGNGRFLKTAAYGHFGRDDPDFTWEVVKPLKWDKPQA

AtMAT2 = target: T2, AtMAT2 (Arabidopsis thaliana, UniProt P17562); experiment: X-ray crystal structure; type: binding
T2 sequence (P17562 1-392): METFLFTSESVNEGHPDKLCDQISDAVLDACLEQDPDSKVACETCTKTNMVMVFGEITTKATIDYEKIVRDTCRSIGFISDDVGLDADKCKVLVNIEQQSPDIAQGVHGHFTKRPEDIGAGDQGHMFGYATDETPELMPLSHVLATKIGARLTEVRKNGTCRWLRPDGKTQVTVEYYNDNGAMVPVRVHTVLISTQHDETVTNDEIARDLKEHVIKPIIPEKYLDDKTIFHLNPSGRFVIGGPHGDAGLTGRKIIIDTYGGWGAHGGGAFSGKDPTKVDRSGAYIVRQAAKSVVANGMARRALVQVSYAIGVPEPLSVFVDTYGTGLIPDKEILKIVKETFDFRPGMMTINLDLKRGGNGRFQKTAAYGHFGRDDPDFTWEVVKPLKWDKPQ

`NCCCCNCCCN` [spermidine] showed a Kd (AtMAT1) of 654 nM.
For `Nc1ncnc2c1ncn2[C@@H]1O[C@H](COP(=O)(O)CP(=O)(O)OP(=O)(O)O)[C@@H](O)[C@H]1O` [AMPCPP], the “X-ray crystal structure (2.00 Å, soaking)” value (AtMAT2) was “inside the catalytic site both, precatalytic Met and the ATP analogue, AMPCPP, revealed the exact pre-reaction state of the enzyme”.
